Structures are written as SMILES.

The record followed here is patent US20180170941A1 (priority 2016, published 2018).

The target in one assay is T1, α5β3γ2 GABAA receptors (Ltk cell membranes) (Homo sapiens, UniProt P18507+P31644).
T1 construct: membranes
T1 sequence (P31644 32-462): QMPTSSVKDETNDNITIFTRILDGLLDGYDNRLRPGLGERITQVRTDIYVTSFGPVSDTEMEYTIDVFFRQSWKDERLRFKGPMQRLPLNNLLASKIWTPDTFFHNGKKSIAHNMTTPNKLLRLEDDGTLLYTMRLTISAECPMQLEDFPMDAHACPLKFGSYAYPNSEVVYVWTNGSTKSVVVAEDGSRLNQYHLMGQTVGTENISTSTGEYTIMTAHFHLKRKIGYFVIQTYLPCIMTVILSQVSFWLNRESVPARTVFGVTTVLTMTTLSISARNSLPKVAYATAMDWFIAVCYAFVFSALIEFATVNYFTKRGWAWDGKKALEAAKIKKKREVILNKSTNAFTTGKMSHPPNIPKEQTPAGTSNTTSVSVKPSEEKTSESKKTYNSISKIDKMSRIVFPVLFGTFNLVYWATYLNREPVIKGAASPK
T1 sequence (P28472 26-473 partner): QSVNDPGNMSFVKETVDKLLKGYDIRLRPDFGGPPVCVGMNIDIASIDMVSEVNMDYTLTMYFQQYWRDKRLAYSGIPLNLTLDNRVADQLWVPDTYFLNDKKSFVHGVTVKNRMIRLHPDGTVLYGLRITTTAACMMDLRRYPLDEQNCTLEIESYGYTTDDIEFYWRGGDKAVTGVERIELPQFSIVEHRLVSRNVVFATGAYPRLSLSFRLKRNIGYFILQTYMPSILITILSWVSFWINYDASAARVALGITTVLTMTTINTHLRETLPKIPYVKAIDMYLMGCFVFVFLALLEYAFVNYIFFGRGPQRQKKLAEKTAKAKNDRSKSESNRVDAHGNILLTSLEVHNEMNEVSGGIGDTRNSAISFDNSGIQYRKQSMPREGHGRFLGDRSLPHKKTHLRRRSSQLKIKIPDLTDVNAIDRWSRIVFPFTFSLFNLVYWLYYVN
T1 sequence (P18507 40-475): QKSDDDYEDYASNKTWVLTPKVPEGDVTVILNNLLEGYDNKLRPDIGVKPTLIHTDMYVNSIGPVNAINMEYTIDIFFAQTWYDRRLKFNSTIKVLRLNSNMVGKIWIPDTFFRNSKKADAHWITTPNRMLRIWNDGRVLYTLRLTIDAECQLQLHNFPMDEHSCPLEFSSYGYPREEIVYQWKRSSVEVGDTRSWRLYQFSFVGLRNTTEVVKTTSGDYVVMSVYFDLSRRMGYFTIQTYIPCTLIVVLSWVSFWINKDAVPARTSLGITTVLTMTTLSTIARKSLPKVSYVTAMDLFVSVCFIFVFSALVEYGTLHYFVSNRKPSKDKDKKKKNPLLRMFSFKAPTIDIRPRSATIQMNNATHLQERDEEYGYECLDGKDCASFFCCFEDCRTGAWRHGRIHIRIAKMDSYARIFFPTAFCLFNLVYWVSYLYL
The experiment in a line: Binding activity of test compounds on GABAAR: inhibition of [3H]Ro15-1788 binding.
Conditions: not given
The procedure, abridged:
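Membranes from dexamethasone-induced Ltk cells (α5 line: 0.5 μM, 1 day); binding with [3H]Ro15-1788 for 1 h at 4 °C in 50 mM KH2PO4, 1 mM EDTA, 0.2 M KCl, pH 7.4, 0.2 mg/ml α5 protein. Nonspecific binding defined by 10 μM diazepam; filtration, scintillation counting, triplicates.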
`CC#Cc1nc(C)n2c1Cn1c(COC(C)C)nnc1-c1cc(Cl)ccc1-2` [Compound 306] gave a Ki greater than 1000 nM.

As for `CC(C)OCc1nnc2n1Cc1c(-c3cnco3)ncn1-c1ccc(Cl)cc1-2` [Compound 315], the inhibition constant Ki is greater than 1000 nM.

The assay is the same for the next values; noted with them: GABA α5 Binding Ki Values, inhibition of [3H]Ro15-1788 binding; reported as ranges.
`COCc1nnc2n1Cc1c(-c3nc(C)co3)ncn1-c1ccc(Cl)cc1-2` [Compound 244] yielded a Ki of less than 100 nM.

Regarding `COCc1nnc2n1Cc1c(-c3nc(-c4ccccc4)co3)ncn1-c1ccc(Cl)cc1-2` [Compound 245], the inhibitory constant (Ki) was less than 100 nM.

The molecule `COCc1nnc2n1Cc1c(-c3nc(C(C)C)co3)ncn1-c1ccc(Cl)cc1-2` [Compound 246] gave an inhibitory constant (Ki) of 100 to 1000 nM.

The molecule `CNC(=O)c1nnn2c1Cc1c(Br)ncn1-c1ccc(OC)cc1-2` [Compound 247] returned an inhibition constant (Ki) of 100 to 1000 nM.

Turning to `COc1ccc2c(c1)-n1nnc(C(=O)N3CCCC3)c1Cc1c(Br)ncn1-2` [Compound 248], the Ki lay in the range of 100 to 1000 nM.

In turn, `COCc1nnc2n1Cc1c(-c3ncco3)ncn1-c1ccc(Cl)cc1-2` [Compound 249] registered an inhibitory constant (Ki) of less than 100 nM.

As for `COc1ccc2c(c1)-n1nnc(CN3CCCC3)c1Cc1c(C#N)ncn1-2` [Compound 250], the Ki was greater than 1000 nM.

Regarding `COc1ccc2c(c1)-n1nnc(CN3CCCCC3)c1Cc1c(C#N)ncn1-2` [Compound 251], the inhibition constant (Ki) was greater than 1000 nM.

In turn, `CCN(CC)Cc1nnn2c1Cc1c(C#N)ncn1-c1ccc(OC)cc1-2` [Compound 252] registered an inhibition constant (Ki) greater than 1000 nM.

For the molecule `COc1ccc2c(c1)-n1nnc(CN3CCC(c4ccccc4)CC3)c1Cc1c(C#N)ncn1-2` [Compound 253], the inhibitory constant (Ki) is greater than 1000 nM.

Turning to `CCOCc1nnc2n1Cc1c(-c3nc(C(C)C)no3)ncn1-c1ccc(Cl)cc1-2` [Compound 254], the inhibition constant (Ki) was less than 100 nM.

Molecule `CCOCc1nnc2n1Cc1c(-c3nc(C)no3)ncn1-c1ccc(Cl)cc1-2` [Compound 255] returned an inhibitory constant (Ki) of less than 100 nM.

On to `C#Cc1ncn2c1Cn1c(COC)nnc1-c1cc(Cl)ccc1-2` [Compound 256], for which the Ki is less than 100 nM.

For `COc1ccc2c(c1)-n1nncc1Cc1c(-c3nc(C(C)C)no3)ncn1-2` [Compound 257], the inhibitory constant (Ki) is less than 100 nM.

`COc1ccc2c(c1)-n1nncc1Cc1c(-c3nc(C)no3)ncn1-2` [Compound 258] came in with an inhibition constant Ki of less than 100 nM.

On to `CCOCc1nnc2n1Cc1c(C3=NC(C)CO3)ncn1-c1ccc(Cl)cc1-2` (stereo not drawn) [Compound 259], for which the inhibitory constant (Ki) is less than 100 nM.

Consider `CCOCc1nnc2n1Cc1c(C3=NC(c4ccccc4)CO3)ncn1-c1ccc(Cl)cc1-2` (stereo not drawn) [Compound 260], for which the inhibitory constant (Ki) was less than 100 nM.

On to `C#Cc1ncn2c1Cn1c(COCC)nnc1-c1cc(Cl)ccc1-2` [Compound 261], for which the inhibition constant (Ki) is less than 100 nM.

On to `COc1ccc2c(c1)-n1nnc(/C=C/c3ccccc3)c1Cc1c(C#N)ncn1-2` [Compound 262], for which the Ki is greater than 1000 nM.

Molecule `COCc1nnc2n1Cc1c(C3=N[C@H](c4ccccc4)CO3)ncn1-c1ccc(Cl)cc1-2` [Compound 263] gave a Ki of less than 100 nM.

`COCc1nnc2n1Cc1c(C3=N[C@@H](c4ccccc4)CO3)ncn1-c1ccc(Cl)cc1-2` [Compound 264] gave an inhibition constant (Ki) of less than 100 nM.

For `COCc1nnc2n1Cc1c(C3=N[C@@H](Cc4ccccc4)CO3)ncn1-c1ccc(Cl)cc1-2` [Compound 265], the inhibition constant (Ki) is 100 to 1000 nM.

`COCc1nnc2n1Cc1c(C3=N[C@@H](CC4CCCCC4)CO3)ncn1-c1ccc(Cl)cc1-2` [Compound 266] returned a Ki of 100 to 1000 nM.

The molecule `COCc1nnc2n1Cc1c(C3=N[C@H](CC(C)C)CO3)ncn1-c1ccc(Cl)cc1-2` [Compound 267] had a Ki of 100 to 1000 nM.

The molecule `CC(C)OCc1nnc2n1Cc1c(C3=N[C@H](c4ccccc4)CO3)ncn1-c1ccc(Cl)cc1-2` [Compound 268] registered a Ki of less than 100 nM.

`CC(C)OCc1nnc2n1Cc1c(C3=N[C@@H](c4ccccc4)CO3)ncn1-c1ccc(Cl)cc1-2` [Compound 270] showed a Ki of less than 100 nM.

Consider `CCOCc1nnc2n1Cc1c(C3=N[C@H](c4ccccc4)CO3)ncn1-c1ccc(Cl)cc1-2` [Compound 271], for which the inhibition constant Ki was less than 100 nM.

For `COc1ccc2c(c1)-n1nnc(-c3ccccc3)c1Cc1c(-c3nc(C(C)C)no3)ncn1-2` [Compound 272], the inhibition constant (Ki) was greater than 1000 nM.

In the case of `COc1ccc2c(c1)-n1nnc(-c3ccccc3)c1Cc1c(-c3nc(C)no3)ncn1-2` [Compound 273], the Ki was 100 to 1000 nM.

For `COCc1nnc2n1Cc1c(COc3ccccn3)ncn1-c1ccc(Cl)cc1-2` [Compound 274], the inhibitory constant (Ki) was in the range of 100 to 1000 nM.

The molecule `CCOCc1nnc2n1Cc1c(C3=N[C@@H](c4ccccc4)CO3)ncn1-c1ccc(Cl)cc1-2` [Compound 275] showed a Ki of less than 100 nM.

Turning to `COc1ccc2c(c1)-n1nnc(C)c1Cc1c(-c3nc(C(C)C)no3)ncn1-2` [Compound 277], the inhibition constant (Ki) was less than 100 nM.

For the molecule `CCOCc1nnc2n1Cc1c(-c3cc(C)no3)ncn1-c1ccc(Cl)cc1-2` [Compound 278], the Ki was less than 100 nM.

Regarding `CCOC(=O)c1ncn2c1Cc1c(-c3ccccc3Cl)nnn1-c1cc(OC)ccc1-2` [Compound 279], the Ki was greater than 1000 nM.

Molecule `Cc1cc(-c2ncn3c2Cn2c(COC(C)C)nnc2-c2cc(Cl)ccc2-3)on1` [Compound 281] yielded a Ki of 100 to 1000 nM.

As for `COCc1nnc2n1Cc1c(C3=N[C@H](C)CO3)ncn1-c1ccc(Cl)cc1-2` [Compound 282], the Ki is less than 100 nM.

The molecule `COCc1nnc2n1Cc1c(C3=N[C@@H](C)CO3)ncn1-c1ccc(Cl)cc1-2` [Compound 283] registered a Ki of 100 to 1000 nM.

For the molecule `C#Cc1ccc2c(c1)-c1nnc(COC)n1Cc1c(C3=N[C@H](C(C)C)CO3)ncn1-2` [Compound 284], the inhibitory constant (Ki) lay in the range of 100 to 1000 nM.

In the case of `COCc1nnc2n1Cc1c(C#Cc3ccccc3)ncn1-c1ccc(Cl)cc1-2` [Compound 285], the Ki is less than 100 nM.

Molecule `CC(C)OCc1nnc2n1Cc1c(C3=N[C@H](C)CO3)ncn1-c1ccc(Cl)cc1-2` [Compound 286] had an inhibition constant (Ki) of 100 to 1000 nM.

Molecule `CC(C)OCc1nnc2n1Cc1c(C3=N[C@@H](C)CO3)ncn1-c1ccc(Cl)cc1-2` [Compound 287] showed a Ki of 100 to 1000 nM.

`C#Cc1ncn2c1Cn1c(COC(C)C)nnc1-c1cc(Cl)ccc1-2` [Compound 288] registered a Ki of less than 100 nM.

The molecule `COc1ccc2c(c1)-n1nncc1Cc1c(C3=N[C@@H](c4ccccc4)CO3)ncn1-2` [Compound 289] came in with a Ki of less than 100 nM.

`COc1ccc2c(c1)-n1nncc1Cc1c(C3=N[C@H](C)CO3)ncn1-2` [Compound 291]: the inhibition constant Ki was less than 100 nM.

`COc1ccc2c(c1)-n1nncc1Cc1c(C3=N[C@@H](C)CO3)ncn1-2` [Compound 292] gave an inhibition constant Ki of 100 to 1000 nM.

Molecule `COCc1nnc2n1Cc1c(C#Cc3ccccc3C)ncn1-c1ccc(Cl)cc1-2` [Compound 293] returned a Ki of less than 100 nM.

In turn, `COCc1nnc2n1Cc1c(C3=NC[C@@H](C)O3)ncn1-c1ccc(Cl)cc1-2` [Compound 294] came in with a Ki of less than 100 nM.

For the molecule `COCc1nnc2n1Cc1c(C3=NC[C@H](C)O3)ncn1-c1ccc(Cl)cc1-2` [Compound 295], the inhibition constant Ki is less than 100 nM.

On to `COCc1nnc2n1Cc1c(-c3ncc(C)o3)ncn1-c1ccc(Cl)cc1-2` [Compound 296], for which the inhibition constant (Ki) is less than 100 nM.

On to `COCc1nnc2n1Cc1c(C3=NC(C)(C)CO3)ncn1-c1ccc(Cl)cc1-2` [Compound 297], for which the Ki was 100 to 1000 nM.

`COCc1nnn2c1Cc1c(C3=N[C@@H](C)CO3)ncn1-c1ccc(OC)cc1-2` [Compound 298] came in with a Ki of 100 to 1000 nM.

`COCc1nnn2c1Cc1c(C3=N[C@@H](Cc4ccccc4)CO3)ncn1-c1ccc(Cl)cc1-2` [Compound 299] displayed a Ki of 100 to 1000 nM.

The molecule `COCc1nnn2c1Cc1c(C3=N[C@@H](C)CO3)ncn1-c1ccc(Cl)cc1-2` [Compound 300] gave a Ki of 100 to 1000 nM.

Take `C#Cc1ccc2c(c1)-c1nnc(COC)n1Cc1c(-c3nc(-c4ccccc4)co3)ncn1-2` [Compound 302]: the Ki is less than 100 nM.

Take `Cc1cc(-c2ncn3c2Cn2c(COCC(F)(F)F)nnc2-c2cc(Cl)ccc2-3)on1` [Compound 303]: the Ki is 100 to 1000 nM.

For `FC(F)(F)COCc1nnc2n1Cc1c(C3=N[C@@H](c4ccccc4)CO3)ncn1-c1ccc(Cl)cc1-2` [Compound 304], the Ki is less than 100 nM.

Molecule `C#Cc1nc(C)n2c1Cn1c(COC(C)C)nnc1-c1cc(Cl)ccc1-2` [Compound 305] yielded a Ki of 100 to 1000 nM.

`CCOCc1nnc2n1Cc1c(C#Cc3ccccc3F)ncn1-c1ccc(Cl)cc1-2` [Compound 307]: the Ki was less than 100 nM.

In turn, `CCOC(=O)c1ncn2c1Cn1c(COCC(F)(F)F)nnc1-c1cc(Cl)ccc1-2` [Compound 308] came in with a Ki of less than 100 nM.

For `FC(F)(F)COCc1nnc2n1Cc1c(C3=NCCO3)ncn1-c1ccc(Cl)cc1-2` [Compound 309], the Ki fell in the range of 100 to 1000 nM.

In the case of `Cc1ccccc1C#Cc1ncn2c1Cn1c(COC(C)C)nnc1-c1cc(Cl)ccc1-2` [Compound 310], the inhibition constant Ki was less than 100 nM.

As for `CCOCc1nnc2n1Cc1c(C#Cc3ccccc3C)ncn1-c1ccc(Cl)cc1-2` [Compound 311], the inhibition constant Ki was less than 100 nM.

The molecule `Cc1coc(-c2ncn3c2Cn2c(COCC(F)(F)F)nnc2-c2cc(Cl)ccc2-3)n1` [Compound 312] yielded a Ki of 100 to 1000 nM.

The molecule `FC(F)(F)COCc1nnc2n1Cc1c(-c3nc(-c4ccccc4)co3)ncn1-c1ccc(Cl)cc1-2` [Compound 313] yielded a Ki of less than 100 nM.

Molecule `COCc1nnc2n1Cc1c(-c3cnco3)ncn1-c1ccc(Cl)cc1-2` [Compound 314] displayed a Ki of 100 to 1000 nM.

With `CC(C)OCc1nnc2n1Cc1c(C3=NCCO3)ncn1-c1ccc(Cl)cc1-2` [Compound 316], the Ki is 100 to 1000 nM.

Molecule `CCOCc1nnc2n1Cc1c(C3=NCCO3)ncn1-c1ccc(Cl)cc1-2` [Compound 317] yielded an inhibition constant (Ki) of less than 100 nM.

The molecule `CCOC(=O)c1ncn2c1Cc1c(C#Cc3ccccc3)nnn1-c1cc(OC)ccc1-2` [Compound 318] yielded a Ki of 100 to 1000 nM.

`COCc1nnc2n1Cc1c(C3=N[C@@H](c4ccccc4F)CO3)ncn1-c1ccc(Cl)cc1-2` [Compound 319] registered a Ki of less than 100 nM.

Molecule `COCc1nnc2n1Cc1c(C3=N[C@@H](c4ccc(F)cc4)CO3)ncn1-c1ccc(Cl)cc1-2` [Compound 320] had an inhibition constant Ki of less than 100 nM.

One may read the Ki as the dissociation constant of the complex between target and ligand, obtained from inhibition or displacement. Read a high Ki as weaker binding.
